Measurements reported in US4670456A, “4-Aminocarbonylaminomethyl-1-benzylpyrrolidin-2-ones as nootropic agents and as agents for treating cerebral insufficiency” (Boehringer Ingelheim KG, priority 1984, dated 1987).
Read-outs that look alike come from different tables or passages of the source.

Key:
mice [1] = test: Reversal of Scopolamine-Induced Transient Disruption of the Memory of a Passive Avoidance Procedure; assay type: in vivo; settings: scopolamine 0.6 mg/kg i.p.
Description: 1. […] The animals used were mice, to which scopolamine was administered at a dosage of 0.6 mg/kg, i.p.

[2] = target: muscarine-cholinergic receptor structures in the rat cortex; test: Muscarine-Cholinergic Receptor Binding, cortex
Description: Also as described in Example 8, the compounds tested bound with high affinity to muscarine-cholinergic receptor structures in the rat cortex.
3. Muscarine-Cholinergic Receptor Binding
This test was performed according to the methods described by M. Watson et al., Life Sci., 32, 3001-3011 (1983) and R. Hammer et al., Nature, 283, 90=92 (1980). The IC50 values were calculated in the manner described by Y. C. Cheng et al., Biochemical Pharmacology, 22, 3099-3108 (1973).

[3] = target: Muscarine-Cholinergic Receptor (Hippocampus); test: Muscarine-Cholinergic Receptor Binding, hippocampus; parameters: species or system rat
Description: The IC50 values were calculated in the manner described by Y. C.

Acute Toxicity (LD50) = settings: in vivo, po; mouse
Description: The acute toxicity of the test compounds was determined in the conventional manner, in the mouse.

mice [4] = test: Hypoxia Tolerance Test; assay type: in vivo; settings: 96.5% nitrogen, 3.5% oxygen, effective: at most 1-2 treated animals died when 7-8 untreated had died
Description: 2. Hypoxia Tolerance Test
In the method employed, mice which are untreated controls or which have been pretreated with the test substance (p.o.) are placed in respective sealed chambers which are filled with a gas mixture consisting of 96.5% nitrogen and 3.5% oxygen. The observer waits until 7-8 of the untreated animals have died. This occurs within 6-7 minutes. If the test substance is effective, at most 1-2 of the treated animals may have died.

[5] = Hippocampus, read-out: Muscarine Receptor Binding, IC50, Hippocampus
[6] = printed across the Hippocampus and Cortex columns, ineffective up to the stated concentration, read-out: Muscarine Receptor Binding, IC50, Hippocampus and Cortex (ineffective up to)

In the case of `Cc1ccc(CN2CC(CNC(=O)N3CCN(C)CC3)CC2=O)cc1` (centres unmarked) [Example 13], the “Scopolamine-Induced Memory Disruption, % Inhibition” value (mice [1]; 50 mg/kg p.o.) is reported as 50%, the IC50 [2] is reported as > 10 µM and the IC50 [3, 5] is reported as 26 µM.
For `CNC(=O)NCC1CC(=O)N(Cc2ccccc2)C1` (centres unmarked) [Example 7], the “Scopolamine-Induced Memory Disruption, % Inhibition” value (mice [1]; 100 mg/kg p.o.) was 60% and the IC50 [3, 5] was > 100 µM.
In the case of `CN1CCN(C(=O)NCC2CC(=O)N(Cc3ccccc3)C2)CC1` (centres unmarked) [Example 1, 4-(N-Methylpiperazinyl-carbonylaminomethyl)-1-benzylpyrrolidin-2-one], the LD50 at 336 h (Acute Toxicity (LD50)) is reported as 1500 to 2000 mg/kg and the “Scopolamine-Induced Memory Disruption, % Inhibition” value (mice [1]; 10 mg/kg p.o.) is reported as 43%.
In the case of `COc1ccc(C(=O)N2CCCC2=O)cc1` [Aniracetam, 1-(p-methoxybenzoyl)-pyrrolidin-2-one, reference compound], the “Scopolamine-Induced Memory Disruption, % Inhibition” value (mice [1]; 30 mg/kg p.o.) is reported as 29.7%, the “Scopolamine-Induced Memory Disruption, % Inhibition” value (mice [1]; 50 mg/kg p.o.) is reported as 42.6% and the “Scopolamine-Induced Memory Disruption, % Inhibition” value (mice [1]; 100 mg/kg p.o.) is reported as 49.3%. For the same molecule, the IC50 [3, 6] was > 100 µM.
In the case of `CN1CCN(C(=O)N(C)CC2CC(=O)N(Cc3ccccc3)C2)CC1` (centres unmarked) [Example 17], the “Scopolamine-Induced Memory Disruption, % Inhibition” value (mice [1]; 30 mg/kg p.o.) is reported as 45% and the IC50 [3, 5] is reported as > 100 µM.
For `O=C(NCC1CC(=O)N(Cc2ccccc2)C1)Nc1ccc(Cl)cc1` (centres unmarked) [Example 5, 4-(p-Chlorophenylamino-carbonylaminomethyl)-1-benzylpyrrolidin-2-one], the LD50 at 336 h (Acute Toxicity (LD50)) was > 2000 mg/kg, the “Hypoxia Tolerance” value (mice [4]; 100 mg/kg p.o.) was “effective” and the “Scopolamine-Induced Memory Disruption, % Inhibition” value (mice [1]; 5 mg/kg p.o.) was 50%. For the same molecule, the “Scopolamine-Induced Memory Disruption, % Inhibition” value (mice [1]; 10 mg/kg p.o.) was 70% and the IC50 [3, 5] was 93 µM.
With `NC(=O)CN1CCCC1=O` [Piracetam, 1-carbomyl-methyl-pyrrolidin-2-one, reference compound] the “Hypoxia Tolerance” value (mice [4]; 150 mg/kg p.o.) was “effective”, the “Scopolamine-Induced Memory Disruption, % Inhibition” value (mice [1]; 100 mg/kg p.o.) was 42.9% and the “Scopolamine-Induced Memory Disruption, % Inhibition” value (mice [1]; 200 mg/kg p.o.) was 53.7%. For the same molecule, the “Scopolamine-Induced Memory Disruption, % Inhibition” value (mice [1]; 500 mg/kg p.o.) was 50.0% and the IC50 [3, 6] was > 1000 µM.
